The results in this text go back to patent US20040102622A1, “Modulation of hepatocyte growth factor receptor expression” (Isis Pharmaceuticals Inc., priority 2002, published 2004).

The series deals with human hepatocyte growth factor receptor mRNA.
For the substance “ISIS 155120: 2′-MOE gapmer, phosphorothioate backbone, sequence gtgtcctattaaagcagtgc (antisense GTGTCCTATTAAAGCAGTGC; all phosphorothioate, sugars by position and methylation of C not given here; 2'-MOE gapmer)”, the “inhibition of human hepatocyte growth factor receptor expression” value (shortened to “inhibition”) is recorded as “at least 35%”.
“ISIS 155124: 2′-MOE gapmer, phosphorothioate backbone, sequence tatgatgtctcccagaagga (antisense TATGATGTCTCCCAGAAGGA; all phosphorothioate, sugars by position and methylation of C not given here; 2'-MOE gapmer)”: the “inhibition” value was “at least 35%”.
The entry for “ISIS 155108: 2′-MOE gapmer, phosphorothioate backbone, sequence attctcgggacactaactga (antisense ATTCTCGGGACACTAACTGA; all phosphorothioate, sugars by position and methylation of C not given here; 2'-MOE gapmer)” is “at least 35%”; for “ISIS 209544: 2′-MOE gapmer, phosphorothioate backbone, sequence taatagtgcaattttggcaa (antisense TAATAGTGCAATTTTGGCAA; all phosphorothioate, sugars by position and methylation of C not given here; 2'-MOE gapmer)” it is “at least 35%”.
As to “ISIS 209522: 2′-MOE gapmer, phosphorothioate backbone, sequence agaggtttatctttcggtgc (antisense AGAGGTTTATCTTTCGGTGC; all phosphorothioate, sugars by position and methylation of C not given here; 2'-MOE gapmer)”, the “inhibition” value is reported as “at least 35%”.
Turning to “ISIS 155112: 2′-MOE gapmer, phosphorothioate backbone, sequence taggagtcttctcccttgca (antisense TAGGAGTCTTCTCCCTTGCA; all phosphorothioate, sugars by position and methylation of C not given here; 2'-MOE gapmer)”, the “inhibition” value is on record as “at least 35%”.
Turning to “ISIS 155128: 2′-MOE gapmer, phosphorothioate backbone, sequence actgtgaatttttcatccag (antisense ACTGTGAATTTTTCATCCAG; all phosphorothioate, sugars by position and methylation of C not given here; 2'-MOE gapmer)”, the “inhibition” value is “at least 35%”.
In the case of “ISIS 155114: 2′-MOE gapmer, phosphorothioate backbone, sequence aattgttgctttcaaaggca (antisense AATTGTTGCTTTCAAAGGCA; all phosphorothioate, sugars by position and methylation of C not given here; 2'-MOE gapmer)”, the “inhibition” value is listed as “at least 35%”.
Next, “ISIS 155118: 2′-MOE gapmer, phosphorothioate backbone, sequence catccagcatacagtttctt (antisense CATCCAGCATACAGTTTCTT; all phosphorothioate, sugars by position and methylation of C not given here; 2'-MOE gapmer)”: “at least 35%”.
Next, “ISIS 209530: 2′-MOE gapmer, phosphorothioate backbone, sequence ttacaggatccacataggag (antisense TTACAGGATCCACATAGGAG; all phosphorothioate, sugars by position and methylation of C not given here; 2'-MOE gapmer)”: “at least 35%”.
The entry for “ISIS 155106: 2′-MOE gapmer, phosphorothioate backbone, sequence cacaacctgcatgaagcgac (antisense CACAACCTGCATGAAGCGAC; all phosphorothioate, sugars by position and methylation of C not given here; 2'-MOE gapmer)” is “at least 35%”; for “ISIS 155113: 2′-MOE gapmer, phosphorothioate backbone, sequence ctaatgagttgatcatcata (antisense CTAATGAGTTGATCATCATA; all phosphorothioate, sugars by position and methylation of C not given here; 2'-MOE gapmer)” it is “at least 35%”; for “ISIS 209521: 2′-MOE gapmer, phosphorothioate backbone, sequence ggaaccagtggagaagtcag (antisense GGAACCAGTGGAGAAGTCAG; all phosphorothioate, sugars by position and methylation of C not given here; 2'-MOE gapmer)” it is “at least 35%”.
As to “ISIS 155132: 2′-MOE gapmer, phosphorothioate backbone, sequence gattccctcggtcagaaatt (antisense GATTCCCTCGGTCAGAAATT; all phosphorothioate, sugars by position and methylation of C not given here; 2'-MOE gapmer)”, the “inhibition” value is listed as “at least 35%”.
In the case of “ISIS 155125: 2′-MOE gapmer, phosphorothioate backbone, sequence ggaaactgatcttctggaaa (antisense GGAAACTGATCTTCTGGAAA; all phosphorothioate, sugars by position and methylation of C not given here; 2'-MOE gapmer)”, the “inhibition” value was “at least 35%”.
As to “ISIS 209534: 2′-MOE gapmer, phosphorothioate backbone, sequence agcattacttcatataaggg (antisense AGCATTACTTCATATAAGGG; all phosphorothioate, sugars by position and methylation of C not given here; 2'-MOE gapmer)”, the “inhibition” value is reported as “at least 35%”.
Next, “ISIS 209543: 2′-MOE gapmer, phosphorothioate backbone, sequence gatgccaccgtgcactgtgc (antisense GATGCCACCGTGCACTGTGC; all phosphorothioate, sugars by position and methylation of C not given here; 2'-MOE gapmer)”: “at least 35%”.
Next, “ISIS 155099: 2′-MOE gapmer, phosphorothioate backbone, sequence caggtttttcccaacacctg (antisense CAGGTTTTTCCCAACACCTG; all phosphorothioate, sugars by position and methylation of C not given here; 2'-MOE gapmer)”: “at least 35%”; “ISIS 155102: 2′-MOE gapmer, phosphorothioate backbone, sequence gagaggcattgactgcagga (antisense GAGAGGCATTGACTGCAGGA; all phosphorothioate, sugars by position and methylation of C not given here; 2'-MOE gapmer)”: “at least 35%”.
Next, “ISIS 209527: 2′-MOE gapmer, phosphorothioate backbone, sequence cgcttcacagcctgatgaat (antisense CGCTTCACAGCCTGATGAAT; all phosphorothioate, sugars by position and methylation of C not given here; 2'-MOE gapmer)”: “at least 35%”; “ISIS 155105: 2′-MOE gapmer, phosphorothioate backbone, sequence atcaaagtatttggaaagga (antisense ATCAAAGTATTTGGAAAGGA; all phosphorothioate, sugars by position and methylation of C not given here; 2'-MOE gapmer)”: “at least 35%”.
Take “ISIS 209539: 2′-MOE gapmer, phosphorothioate backbone, sequence gcttccccattgctgttagg (antisense GCTTCCCCATTGCTGTTAGG; all phosphorothioate, sugars by position and methylation of C not given here; 2'-MOE gapmer)”: the “inhibition” value was “at least 35%”.
On to “ISIS 155098: 2′-MOE gapmer, phosphorothioate backbone, sequence tcagaagtgtcctattaaag (antisense TCAGAAGTGTCCTATTAAAG; all phosphorothioate, sugars by position and methylation of C not given here; 2'-MOE gapmer)”, for which the “inhibition” value was “at least 35%”.
Next, “ISIS 155107: 2′-MOE gapmer, phosphorothioate backbone, sequence tccgcggtgaagttgggaag (antisense TCCGCGGTGAAGTTGGGAAG; all phosphorothioate, sugars by position and methylation of C not given here; 2'-MOE gapmer)”: “at least 35%”; “ISIS 209523: 2′-MOE gapmer, phosphorothioate backbone, sequence gggccttcattatgagaggt (antisense GGGCCTTCATTATGAGAGGT; all phosphorothioate, sugars by position and methylation of C not given here; 2'-MOE gapmer)”: “at least 35%”.
On to “ISIS 155121: 2′-MOE gapmer, phosphorothioate backbone, sequence tgaaaggactttggctccca (antisense TGAAAGGACTTTGGCTCCCA; all phosphorothioate, sugars by position and methylation of C not given here; 2'-MOE gapmer)”, for which the “inhibition” value is “at least 35%”.
